Each structure is given as a SMILES string.

The target of one assay is T1, human p38 kinase alpha (Homo sapiens, UniProt Q16539).
T1 construct: The coding region of the human p38a cDNA was obtained by PCR-amplification from RNA isolated from the human monocyte cell line THP.1; GST (N); made in house; host or cells: E. coli DH10B
T1 sequence (Q16539 whole entry): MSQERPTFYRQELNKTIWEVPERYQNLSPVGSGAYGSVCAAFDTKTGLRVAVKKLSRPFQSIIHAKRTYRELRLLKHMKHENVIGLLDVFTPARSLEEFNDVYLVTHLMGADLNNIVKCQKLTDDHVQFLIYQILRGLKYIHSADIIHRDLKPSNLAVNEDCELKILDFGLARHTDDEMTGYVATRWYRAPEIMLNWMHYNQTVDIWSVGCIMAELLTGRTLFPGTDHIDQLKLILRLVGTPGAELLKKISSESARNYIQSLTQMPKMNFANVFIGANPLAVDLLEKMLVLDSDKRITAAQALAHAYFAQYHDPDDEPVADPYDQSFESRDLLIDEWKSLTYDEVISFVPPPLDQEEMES
Kind of assay: p38 kinase in vitro assay, phosphorylation of biotinylated PHAS-I with gamma 32P-ATP. The assay is classed as biochemical. As to conditions: @ 1.0 uM; read-out: P38 alpha kinase % inhib @ conc. The procedure:
The ability of compounds to inhibit human p38 kinase alpha was evaluated using two in vitro assay methods. In the first method activated human p38 kinase alpha phosphorylates a biotinylated substrate, PHAS-I (phosphorylated heat and acid stable protein-insulin inducible), in the presence of gamma ^32P-ATP (^32P-ATP). PHAS-I was biotinylated prior to the assay and provides a means of capturing the substrate which is phosphorylated during the assay. p38 Kinase was activated by MKK6. Compounds were tested in 10 fold serial dilutions over the range of 100 μM to 0.001 μM using 1% DMSO. Each concentration of inhibitor was tested in triplicate.
All reactions were carried out in 96 well polypropylene plates. Each reaction well contained 25 mM HEPES pH 7.5, 10 mM magnesium acetate and 50 μM unlabeled ATP. […] The reaction proceeded either for one hour or overnight at 30° C.
Following incubation, 20 μl of reaction mixture was transferred to a high capacity streptavidin coated filter plate (SAM-streptavidin-matrix, Promega) prewetted with phosphate buffered saline. […] Filter plates were air dried and 20 μl of scintillant was added. The plates were sealed and counted.
In the case of `O=S(=O)(NCc1[nH]nc(-c2ccc(F)cc2)c1-c1ccncc1)c1ccc(Cl)c(Cl)c1` [Example B-0135], the inhibition at 1 µM is 78%. On to `Cc1cc(C)c(S(=O)(=O)NCc2[nH]nc(-c3ccc(F)cc3)c2-c2ccncc2)c(C)c1` [Example B-0109], for which the inhibition at 1 µM worked out at 45%. As for `C=CCNC(=O)NCc1[nH]nc(-c2ccc(F)cc2)c1-c1ccncc1` [Example B-0170], the inhibition at 1 µM amounted to 43%. Same read-out and setting: in the case of `Cc1cc(C)c(C(=O)NCc2[nH]nc(-c3ccc(F)cc3)c2-c2ccncc2)c(C)c1` [Example B-0049] it was 88%.

`C[C@@H](NC(=O)NCc1[nH]nc(-c2ccc(F)cc2)c1-c1ccncc1)c1ccccc1` [Example B-0176]: the inhibition at 1 µM is 50%. On to `O=S(=O)(NCc1[nH]nc(-c2ccc(F)cc2)c1-c1ccncc1)c1ccc(Cl)cc1Cl` [Example B-0126], for which the inhibition at 1 µM was 66%. Same read-out and setting: in the case of `COc1ccc(C(=O)NCc2[nH]nc(-c3ccc(F)cc3)c2-c2ccncc2)c(OC)c1` [Example B-0086] it was 91%.

In the case of `O=C(NCc1[nH]nc(-c2ccc(F)cc2)c1-c1ccncc1)c1cc(F)ccc1F` [Example B-0095], the inhibition at 1 µM came to 98%. On the same count and under the same terms, in the case of `O=[N+]([O-])c1ccccc1CS(=O)(=O)NCc1[nH]nc(-c2ccc(F)cc2)c1-c1ccncc1` [Example B-0112] it was 97%; in that of `COc1ccc(S(=O)(=O)NCc2[nH]nc(-c3ccc(F)cc3)c2-c2ccncc2)cc1OC` [Example B-0131], 43%.

Still in this assay, the particulars now being: @ 10.0 uM; read-out: P38 alpha kinase % inhib @ conc.
With `O=C(NCc1[nH]nc(-c2ccc(F)cc2)c1-c1ccncc1)Nc1ccc(-c2ccccc2)cc1` [Example B-0180], the inhibition at 10 µM worked out at 34%. `COc1ccccc1NC(=O)NCc1[nH]nc(-c2ccc(F)cc2)c1-c1ccncc1` [Example B-0166]: the inhibition at 10 µM came out at 45%. Regarding `O=C(NCc1[nH]nc(-c2ccc(F)cc2)c1-c1ccncc1)Nc1ccc(Oc2ccccc2)cc1` [Example B-0155], the inhibition at 10 µM is 40%. Consider `CC(C)c1ccc(NC(=O)NCc2[nH]nc(-c3ccc(F)cc3)c2-c2ccncc2)cc1` [Example B-0178], for which the inhibition at 10 µM was 12%. Take `O=C(NCc1[nH]nc(-c2ccc(F)cc2)c1-c1ccncc1)Nc1cc(Cl)ccc1Cl` [Example B-0183]: the inhibition at 10 µM was determined as 12%.

Still in this assay, the particulars now being: p38α in vitro, PHAS-I assay procedure; read-out: p38^1 IC50.
Take `OCCn1cc(-c2ccnc(NCc3ccc(F)cc3)c2)c(-c2ccc(F)cc2)n1` [Example A-283, 3 (or 5)-(4-fluorophenyl)-4-[2-[[(4-fluorophenyl)methyl]amino]-4-pyridinyl]-1H-pyrazole-1-ethanol]: the IC50 is less than 100 nM. Still for that read-out and setting: in the case of `OCCNc1cc(-c2c[nH]nc2-c2ccc(F)cc2)ccn1` [Example A-280] it was 134 nM.

The assay is the same for the next values; noted with them: read-out: P38 alpha kinase IC50.
`O=C(c1ccccc1Br)N1CCC(c2[nH]nc(-c3ccc(F)cc3)c2-c2ccncc2)CC1` [Example B-1398]: the half-inhibitory concentration (IC50) is 920 nM. Still for that read-out and setting: in the case of `N#Cc1cccc(C(=O)N2CCC(c3[nH]nc(-c4ccc(F)cc4)c3-c3ccncc3)CC2)c1` [Example B-1396] it was 550 nM. In the case of `COc1ccc(Cl)cc1S(=O)(=O)NCc1[nH]nc(-c2ccc(F)cc2)c1-c1ccncc1` [Example B-0253], the 50% inhibitory concentration (IC50) is 61 nM. With `COc1cccc(C(=O)NC(C)c2[nH]nc(-c3ccc(F)cc3)c2-c2ccncc2)c1` (stereo not shown) [Example B-0557], the 50% inhibitory concentration (IC50) worked out at 1370 nM. With `C[C@@H](NS(=O)(=O)c1ccc(-c2ccon2)s1)c1[nH]nc(-c2ccc(F)cc2)c1-c1ccncc1` [Example B-0485], the IC50 worked out at 40 nM. Take `Cc1ccc(C(=O)NC(C)c2[nH]nc(-c3ccc(F)cc3)c2-c2ccncc2)cc1` (stereo not shown) [Example B-0551]: the concentration for half-maximal inhibition (IC50) was 1080 nM. Regarding `CCNC(=O)N[C@H](C)c1[nH]nc(-c2ccc(F)cc2)c1-c1ccncc1` [Example B-0421], the IC50 was found to be 460 nM. Consider `COc1cccc(C(=O)N[C@H](C)c2[nH]nc(-c3ccc(F)cc3)c2-c2ccncc2)c1` [Example B-0380], for which the IC50 is 1410 nM. As for `C[C@@H](NC(=O)N[C@H](C)c1[nH]nc(-c2ccc(F)cc2)c1-c1ccncc1)c1ccccc1` [Example B-0417], the IC50 was 910 nM. Still for that read-out and setting: in the case of `C[C@@H](NC(=O)NCCc1ccccc1)c1[nH]nc(-c2ccc(F)cc2)c1-c1ccncc1` [Example B-0416] it was 320 nM; in that of `O=C(NCCCc1[nH]nc(-c2ccc(F)cc2)c1-c1ccncc1)c1ccccc1Br` [Example B-1355], 700 nM. With `CC(NC(=O)c1cc(F)cc(F)c1)c1[nH]nc(-c2ccc(F)cc2)c1-c1ccncc1` (stereo not shown) [Example B-0679], the IC50 was 62 nM. As for `CC(=O)N[C@H](C)c1[nH]nc(-c2ccc(F)cc2)c1-c1ccncc1` [Example B-0359], the IC50 came to 450 nM.

As to `Cc1noc(C)c1S(=O)(=O)N[C@H](C)c1[nH]nc(-c2ccc(F)cc2)c1-c1ccncc1` [Example B-0476], the IC50 amounted to 560 nM. Consider `O=C(NCc1[nH]nc(-c2ccc(F)cc2)c1-c1ccncc1)c1cccc(F)c1` [Example B-0292], for which the half-maximal inhibitory concentration (IC50) was determined as 220 nM. The same measure, in the same setting: in the case of `CC(=O)NC(C)c1[nH]nc(-c2ccc(F)cc2)c1-c1ccncc1` (stereo not shown) [Example B-0536] it was 460 nM.

The subject of a further assay is TNF-α. The assay is described as follows: LPS stimulation of TNF production by U937 cells. The assay is classed as cell-based, human. As to conditions: @ 1.0 uM. The procedure: Fifty million cells in 100 ml media were induced to terminal monocytic differentiation by 24 hour incubation with 20 ng/ml phorbol 12-myristate 13-acetate (Sigma). The cells were washed by centrifugation (200×g for 5 min) and resuspended in 100 ml fresh medium. After 24-48 hours, the cells were harvested, centrifuged, and resuspended in culture medium at 2 million cells/ml.
Compounds were prepared as 10 mM stock solutions in DMSO and diluted in culture medium to yield a final DMSO concentration of 0.1% in the cell assay. LPS (E coli, 100 ng/ml final concentration) was then added at a volume of 0.02 ml. After 4 hour incubation at 37° C., the amount of TNF-α released in the culture medium was quantitated by ELISA. Inhibitory potency is expressed as IC50 (μM).
In vitro whole cell assay for measuring the ability of the compounds to inhibit TNF production in human U937 cells stimulated with LPS are shown in the column identified as: […]
In the case of `Cc1ccc(C(=O)N[C@H](C)c2[nH]nc(-c3ccc(F)cc3)c2-c2ccncc2)cc1` [Example B-0494], the “U937 Cell % inhib @ conc.” value was 30.0% @ 1.0 uM.

Staying with this assay, now noted: Homo sapiens, U-937, @ 1.0 uM; read-out: U937 Cell % inhib @ conc.
Take `C[C@@H](NS(=O)(=O)c1ccc(Cl)cc1)c1[nH]nc(-c2ccc(F)cc2)c1-c1ccncc1` [Example B-0433]: the inhibition at 1 µM is 92%. As to `Cc1noc(C)c1C(=O)N[C@H](C)c1[nH]nc(-c2ccc(F)cc2)c1-c1ccncc1` [Example B-0529], the inhibition at 1 µM came out at 73%. `COc1ccc(NC(=O)N[C@H](C)c2[nH]nc(-c3ccc(F)cc3)c2-c2ccncc2)c(OC)c1` [Example B-0422]: the inhibition at 1 µM came out at 40%. The same measure, in the same setting: in the case of `C[C@@H](NS(=O)(=O)c1ccc(Br)cc1)c1[nH]nc(-c2ccc(F)cc2)c1-c1ccncc1` [Example B-0432] it was 89%. For `Cc1noc(C)c1C(=O)NCc1[nH]nc(-c2ccc(F)cc2)c1-c1ccncc1` [Example B-0304], the inhibition at 1 µM turned out to be 28%. The same measure, in the same setting: in the case of `C[C@@H](NS(=O)(=O)c1ccccc1)c1[nH]nc(-c2ccc(F)cc2)c1-c1ccncc1` [Example B-0386] it was 54%; in that of `C[C@@H](NC(=O)c1cccc(C#N)c1)c1[nH]nc(-c2ccc(F)cc2)c1-c1ccncc1` [Example B-0499], 37%.

As for `O=C(NCc1[nH]nc(-c2ccc(F)cc2)c1-c1ccncc1)c1cccs1` [Example B-0193], the inhibition at 1 µM came to 6%. The same measure, in the same setting: in the case of `C[C@@H](NC(=O)c1ccccn1)c1[nH]nc(-c2ccc(F)cc2)c1-c1ccncc1` [Example B-0379] it was 24%. Same read-out and setting: in the case of `O=S(=O)(NCc1[nH]nc(-c2ccc(F)cc2)c1-c1ccncc1)c1ccccc1Br` [Example B-0234] it was 68%; in that of `Cc1cccc(Cl)c1S(=O)(=O)N[C@H](C)c1[nH]nc(-c2ccc(F)cc2)c1-c1ccncc1` [Example B-0467], 77%. On to `O=S(=O)(NCc1[nH]nc(-c2ccc(F)cc2)c1-c1ccncc1)c1ccc(C(F)(F)F)cc1` [Example B-0237], for which the inhibition at 1 µM was found to be 60%. As to `Cc1ccccc1S(=O)(=O)NCc1[nH]nc(-c2ccc(F)cc2)c1-c1ccncc1` [Example B-0245], the inhibition at 1 µM was 24%. Take `C[C@@H](NS(=O)(=O)c1cccc(Cl)c1)c1[nH]nc(-c2ccc(F)cc2)c1-c1ccncc1` [Example B-0462]: the inhibition at 1 µM was found to be 97%.

With `C[C@@H](NS(=O)(=O)Cc1ccccc1[N+](=O)[O-])c1[nH]nc(-c2ccc(F)cc2)c1-c1ccncc1` [Example B-0442], the inhibition at 1 µM came to 91%.

The same assay, now with this note: Homo sapiens, U-937, LPS-stimulated U937 cells; read-out: U937 Cell Assay IC50.
For `Cc1ccc(-c2[nH]nc(C)c2-c2ccncc2)cc1` [Example A-5], the IC50 turned out to be 274 nM.

Staying with this assay, now noted: Homo sapiens, U-937, LPS-stimulated U937 cells; read-out: U937 IC50.
On to `OCCn1ncc(-c2ccnc(NCc3ccc(F)cc3)c2)c1-c1ccc(F)cc1` [Example A-290, 5-(4-fluorophenyl)-4-[2-[[(4-fluorophenyl)methyl]amino]-4-pyridinyl]-1H-pyrazole-1-ethanol], for which the IC50 came to 6020 nM.

Still in this assay, the particulars now being: Homo sapiens, U-937, TNF production, LPS-stimulated human U937 cells; read-out: U937 Cell IC50.
As for `O=C(NCc1[nH]nc(-c2ccc(F)cc2)c1-c1ccncc1)c1cccs1` [Example B-0208], the half-inhibitory concentration (IC50) is greater than 1000 nM.

As a reminder, the IC50 is the midpoint of a concentration-inhibition curve.

These data come from patent US6525059B1, “Substituted pyrazoles as p38 kinase inhibitors” (G. D. Searle & Company, priority 1998, dated 2003).
